Experiments:
[1] = Potentiometric titration of DPDP (ligand proton titration); type: physicochemical; conditions: pH of 3 and above
Description: The compound DPDP was studied potentiometrically from pH 11.2 to 2.0. Data sets were collected on a custom-built automatic potentiometric titration apparatus composed of a METROHM 655 DOSIMAT automatic buret, a FISHER ACCUMET pH meter with a CORNING calomel combination electrode, a custom-blown water jacketed titration cell, a BRINKMAN LAUDA K-2/R constant temperature bath and a COMMODORE 64 computer. The BASIC computer program TITRATOR (Harris, W. et al, J.Am.Chem.Soc. 101:6534 (1979)) runs the apparatus. Data analysis was performed on an IBM-AT computer using the least squares program, BETA (Harris, W. et al, supra), and the data analysis program, HANDNBAR (Harris, W. et al, supra). The titrants were standardized by phenophthalein titration as follows: KOH was calibrated against potassium hydrogen phthalate (a primary standard), and HCl solutions were calibrated against the KOH standard. The Mn(II)Cl2 solution was standardized with an EDTA titration using Erichrome Black T as the indicator. All solutions were made from distilled, deionized water that was further purified on a MILLI-Q cartridge system, degassed, and then kept under an atmosphere of argon which had been scrubbed for CO2 and O2. Additions of EDTA and Mn(II) solutions were performed using calibrated GILMOT pipets. […]

[2] = L'Eplathenier et al titrations; cited from earlier work

| Structure (SMILES) | ligand charge / deprotonation state [1] | oxidation of manganese(II) during titration [2] |
| --- | --- | --- |
| Cc1ncc(COP(=O)(O)O)c(CN(CCN(CC(=O)O)Cc2c(COP(=O)(O)O)cnc(C)c2O)CC(=O)O)c1O [DPDP, N,N'-bis(3-hydroxy-2-methyl-5-phosphonomethyl-4-pyridylmethyl)ethylenediamine-N,N'-diacetic acid] | anionic and possesses deprotonated metal binding sites |  |
| O=C(O)CN(CCN(CC(=O)O)Cc1ccccc1O)Cc1ccccc1O [HBED, N,N'-bis(2-hydroxybenzyl)ethylenediamine-N,N'-diacetic acid] |  | the manganese(II) ion was oxidized by the phenolic ligand |

Reference: US5091169A, “Dipyridoxyl phosphate NMRI contrast agent compositions” (priority 1989, dated 1992)
